The test system of test [1] is cortisone-induced insulin resistance in Sprague Dawley rats. Nature of the test: Cortisone induced insulin resistance in rats. The class given is in vivo, rat. As to conditions: cortisone 30 mg/kg sc + 30 mg/kg po. As to the method:
Animals were dosed with cortisone (30 mg/kg sc qd) in combination with test compounds for 6 days and then terminated 27 hours after the final dose of cortisone. A reference standard (Mifepristone) was also included. Cortisone 21-acetate (Sigma C-3130) was supplied by RenaSci and administered using a dose volume of 5 ml/kg via the subcutaneous route as a fine suspension in 1% methylcellulose. […] Mifepristone (Sigma M8046) was provided by RenaSci.
Glucose and insulin determinations were performed on plasma samples obtained from a tail vein bleed taken after a 12 h fast, approximately 27 h after the last cortisone dose. Animals were then terminated and a terminal (cardiac) blood sample taken from which plasma was prepared.
Thirty four male Sprague Dawley rats (weight range 200-250 g) were ordered from Charles River, Margate, Kent, UK. […] Subsequently, animals underwent a 3 day baseline period during which they were dosed once daily with vehicle at t=0 h (07:00). […] Body weight was recorded immediately before dosing began at 07:00 (t=0 h).
On Day 6 of dosing rats were fasted for 12 h beginning at 22:30 (timed to coincide with the Day 7 termination). […] At 10:30 on Day 7, 27 h after the final dose of cortisone, a blood sample (300 μl) was taken from the lateral tail vein into tubes containing EDTA (Sarstedt 16.444). The blood was centrifuged and resultant plasma aliquot stored at −75° C. The animals were euthanized by CO2 asphyxiation followed by cervical dislocation. Terminal blood (approximately 10 ml) was collected by cardiac puncture into tubes containing EDTA (Sarstedt 5 ml 32.332) and then centrifuged and plasma stored at −75° C. The tail vein plasma was analyzed for glucose (n=2) using a commercial clinical reagent (Thermoelectron Infinity glucose reagent (TR15421) and for insulin (n=1) using the Mercodia ultrasensitive rat insulin rat ELISA (10-1251-10).
Plasma glucose and insulin were analyzed by robust regression or general linear model with treatment as a factor and bleeding order and baseline body weight as covariates. A log transformation was used if appropriate. Appropriate multiple comparison tests (two-tailed) were used to determine significant differences from the vehicle group and from the Cortisone group. P<0.05 was considered to be statistically significant.

For test [2], the system named is stable U20S reporter cells harboring Per2-dLuc. In words: Per2 assay for evaluating the potency of test compounds (circadian luciferase reporter). The class given is cell-based. As to conditions: amplitude of Per2-dLuc luminescence vs log concentration. The method in brief: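 U2OS Per2-dLuc cells grown 48 h at 37 °C, then synchronized with 5 μM forskolin plus 1 mM luciferin and dosed with 3-fold compound dilutions.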

Test [3] concerns core clock gene mRNAs in livers of ICR mice. In words: Four day study, liver clock gene mRNA by RT-qPCR, ICR mice. The format is in vivo, mouse. As to conditions: 50 mg/kg PO BID 4 days; for liver Per2 expression: ICR mice, ZT6. As to the method:
Male ICR mice (weighing 30-35 g), obtained from Charles River Laboratories (Hollister, CA), were used for the experiment following at least 3 days of acclimation. Mice were dosed with vehicle (WFI or 10% Kolliphor) or compound (50 mg/kg, dose volume 5 mL/kg, PO) for 4 days BID (twice a day), beginning in the afternoon of the first day. The last dose of compound or vehicle was administered on the morning of harvest. On the day of harvest (6 hours following the final dose), mice were euthanized by CO2 asphyxiation and 50 mg of liver tissue was excised and placed in a tube containing 500 μl of RNA later.
E.Z.N.A.® HP Total RNA Isolation Kits (R6812-01 and the protocol described in the Manual, Revised 2010) were utilized to prepare and isolate RNA from the liver samples. To prepare the RNA samples, 10-30 mg of sample was removed from RNA-Later and placed in a 1.5 ml microfuge tube. GTC lysis buffer (700 μl) was added to the tissue, which was homogenized with a rotor-stator homogenizer (e.g. Tissue-Tearor, Model #985370 BioSpec Products with 4.5 mm probe, Cat. #985370-04), and then centrifuged at full speed (>13,000×g) for 5 minutes. The cleared supernatant was transferred by pipetting to a DNA Clearance Column Pre-inserted in a 2 mL Collection Tube. The assembled column was centrifuged at 13,000×g for 1 minute, and the flow-through was saved. An equal volume (700 μl) of 70% ethanol was added to the lysate and mixed. The sample was then applied to a HiBind RNA spin column placed into a 2 ml collection tube, which was centrifuged at 10,000×g for 60 seconds at room temperature. RNA Wash Buffer I (250 μl) was added by pipetting directly onto a new HiBind RNA column inserted in a 2 ml collection tube. The assembled column was centrifuged at 10,000×g for 60 seconds. The RNA column was placed into a new 2 ml collection tube. DNase I stock solution is pipetted (75 μl) directly onto the surface of the HiBind RNA resin in each column (Using DNAse Digestion with RNase Free DNase Set (E1091): for each HiBind RNA column, the DNase I stock solution was prepared as followed: E.Z.N.A.® DNase I Digestion Buffer 73.5μl, RNase Free DNase I (20 Kunitz/μl) 1.5 μl=Total Volume 75 μl.). The column with bound RNA was incubated at room temperature (25-30° C.) for 15 minutes. RNA Wash Buffer I (500 μl) was added to the column and placed on a bench top for 2 minutes. After centrifuging at 10,000×g for 60 seconds, discarding the flow-through, 500 μl of RNA Wash Buffer II was added and centrifuged at 10,000×g for 60 seconds. Another 500 μl of RNA Wash Buffer II was added and the column assembly was centrifuged at 10,000×g for 60 seconds. The column was centrifuged for 2 minutes at maximum speed to completely dry the HiBind matrix. The column was placed in a clean 1.5 ml microcentrifuge tube and 40-70 μl of molecular biology grade water is added. After sitting for 1 minute, the column was centrifuged for 2 minutes at maximum speed to elute the RNA. The isolated RNA was collected into the collection tube.
RediPlate 96 RiboGreen RNA Quantification Kit (Invitrogen) RediPlate standard curve was prepared by transferring 20 μl reconstituted RNA standard to a RediPlate well reconstituted in 180 μl RediPlate TE buffer. For liver RNAs prepared from 30-100 mg of tissue using a kit similar to the Omega Bio-Tek HP Total RNA Kit and eluted in RNAse-free water in a volume of 50 μl (microliters), 5 μl of the total RNA is diluted in 195 μl of RediPlate TE buffer (1:40 dilution of RNA), mix. After transferring 5 μl to RediPlate well reconstituted in 195 μl TE buffer and incubating 10 min. at RT, Fluorescence Intensity of wells with standards and samples were read in a Tecan M200 with Excitation set at 480 nm and Emission set at 520 nm with the gain set to −70%. Alternatively, one can use the FlexStation 3 with Ex 488 nm and Em 525 nm and a Cutoff of 515 nm.

The test system of test [4] is C57/Bl6J DIO mice. In words: Increasing dosages of Compound 72 for 7 days in diet-induced obesity mouse model. The format is in vivo. As to conditions: positive control 30 mg/kg QD PO 7 days. The text has this:
(§1) Male C57/Bl6J DIO mice were obtained from The Jackson Laboratory (Sacramento, Calif.). […] Animals were accustomed to these conditions for at least 2 weeks before experimentation and used at approximately 24 weeks of age.
(§2) Significance was accepted when p<0.05.
Male C57/Bl6J DIO mice were obtained from The Jackson Laboratory (Sacramento, Calif.). […] Animals were accustomed to these conditions for at least 2 weeks before experimentation and used at approximately 26 weeks of age.

The subject of test [5] is db/db mouse model of type II diabetes. As to conditions: db/db mice, positive control 30 mg/kg QD PO 7 days.
Procedure: Male db/db mice homozygous for Lepr^db (6 weeks of age), were obtained from The Jackson Laboratory (Bar Harbor, Me.). Mice were group housed on a normal light/dark cycle (lights on: 07:00-19:00 h) with ad libitum access to a standard pelleted mouse diet and water. Animals were accustomed to these conditions for 2 weeks before experimentation. […] At 10:30 pm on the evening prior to endpoint measurement, mice were placed into clean cages and given free access to water, but not food for a period of 12 hours before the fasting blood glucose measurement. On the final day of the study, animals were dosed as normal, and then underwent a tail cut injury 2 hours prior to measurement of fasting blood glucose, to allow recovery from any stress the procedure might cause. Fasting blood glucose (FBG) was assessed from the animals at 10:30 am using an AlphaTRAK glucometer (Abbott Laboratories, USA). Following the FBG measurement blood was collected from each mouse, using a tail milking technique, into a capillary tube. Capillary tubes were centrifuged in a hematocrit (BD Triac 0200) and the resultant plasma transferred to an eppendorff. This sample, labelled as t=Ohr, was frozen at −80° C. to allow later measurement of insulin. At 11:30 am each animal was dosed with 0.5 g/kg of glucose, then blood glucose was measured at t=15, 30, 60, 90 and 120 minutes after glucose load. At the end of the OGTT blood was collected for a t=2 hr insulin determination as described above.
Fasting blood glucose values and glucose measurements taken during the OGTT were averaged and graphed (GraphPad Prism, GraphPad Software, La Jolla, Calif.). The area under the curve (AUC) was calculated for each individual animal. Plasma insulin levels were determined using an Ultrasensitive Insulin ELISA (ALPCO, Salem, N.H.). […] Insulin data was also represented in GraphPad Prism format. Statistical analysis was performed using one-way ANOVA followed by the appropriate post-test. Significance was accepted when p<0.05. Data are presented as mean and S.E.M.
The subject of test [6] is C57/Bl6J DIO mice. In words: 7 day dosing in diet-induced obesity (DIO) mouse model. The class given is in vivo.
Text: as §1, §2

In the case of `CC#C[C@]1(O)CC[C@H]2[C@@H]3CCC4=CC(=O)CCC4=C3[C@@H](c3ccc(N(C)C)cc3)C[C@@]21C` [Mifepristone, mifepristone, reference compound], the HOMA-IR in test [1] (insulin resistant rats) is reported as 29.99+/−2.54 units. The fasted plasma insulin in test [1] (rats) is 3.62 ± 0.29 ng/mL. Moreover, the fasted plasma glucose in test [1] (rats, unit printed as ng/mL) is 7.43 ± 0.27 ng/mL.

In turn, `O=C1C2CCC(C2)N1CC(O)Cn1c2ccc(F)cc2c2cc(F)ccc21` (stereo not shown) [Compound 48, 2-(3-(3,6-difluoro-9H-carbazol-9-yl)-2-hydroxypropyl)-2-azabicyclo[2.2.1]heptan-3-one] showed a 50% effective concentration (EC50) in test [2] of 120 nM. In test [3] (ICR mice liver), the Cry2 transcripts result is recorded as “decrease” and the “increase in Bmal1 mRNA at ZT6” value came to 8 fold. Moreover, in test [3], the “liver Per2 expression” value is on record as “suppression”.

Consider `CN(CCOc1ccc(CC2SC(=O)NC2=O)cc1)c1ccccn1` (stereo not shown) [Rosiglitazone, reference compound], for which the fasting blood glucose amounted to 161.1 ± 8.06 mg/dL in the test with C57/Bl6J DIO mice [4], 280.4 ± 13.66 mg/dL in test [5] and 153.9 ± 5.05 mg/dL in the test with C57/Bl6J DIO mice [6] (positive control 30 mg/kg PO 7 days). For the same molecule, the HOMA-IR in test [5] is recorded as 50.58+/−3.52 units; with C57/Bl6J DIO mice [6] (30 mg/kg PO 7 days), 24.60+/−1.42 units. For the same molecule, the figures for the “plasma insulin at t=0” value (in test [5]; in the test on C57/Bl6J DIO mice [6] (30 mg/kg PO 7 days)) were 3.05 ± 0.14 ng/mL and 2.70 ± 0.12 ng/mL, respectively. Besides, the “plasma insulin at t=2 hr” value stood at 2.28 ± 0.08 ng/mL in test [5] and 2.30 ± 0.06 ng/mL in the test with C57/Bl6J DIO mice [6] (30 mg/kg PO 7 days).

`COC1CCCN(CC(O)Cn2c3ccc(F)cc3c3cc(F)ccc32)C1=O` (stereo not shown) [Compound 57, 1-(3-(3,6-difluoro-9H-carbazol-9-yl)-2-hydroxypropyl)-3-methoxypiperidin-2-one]: a half-maximal response in test [2] (EC50) required 329 nM. For the same molecule, the “increase in Bmal1 mRNA at ZT6” value in test [3] (ICR mice liver) is recorded as not below 2 fold. Moreover, the “liver Per2 expression” value in test [3] is given as “suppression”.

The values are drawn from patent US10214507B2, “Carbazole-containing amides, carbamates, and ureas as cryptochrome modulators” (Reset Therapeutics, Inc., priority 2014, dated 2019).
